IC50 and melting point data for 32 compounds are collected here from patent US6482849B1, “Inhibitors of α4β1 mediated cell adhesion” (Tanabe Seiyaku Co., Ltd., priority 1997, dated 2002).

Structures are written as SMILES.

Data set [1] concerns the target T1, α4β1 integrin (Jurkat cell adhesion to immobilized CS-1 derived peptide CLHPGEILDVPST) (Homo sapiens, UniProt P05556+P13612).
T1 construct: 100 μl of Jurkat cells (2.5×10^6 cells/ml) in DMEM plus BSA; endogenous in cells; host or cells: Jurkat T-cell line
Briefly: Jurkat-CS-1 Assay. As to conditions: Jurkat cells on CS-1 peptide coated plates. It is filed as cell-based. In short, it runs like this:
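CS-1 peptide was SPDP-crosslinked onto HSA-coated plates and blocked with BSA. Jurkat cells (2.5×10^6 cells/ml) in DMEM/BSA were mixed with compound, generally at 100, 20, 5 and 1.25 μM, and allowed to adhere for 1 hr at 37° C. Bound cells were fixed, stained with toluidine blue and quantified by OD590.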

In data set [2] the target is T2, α4β1 integrin (Jurkat T-cell adhesion to IL-1 stimulated endothelial cell monolayers) (Homo sapiens, UniProt P05556+P13612).
T2 construct: a T-cell line, Jurkat, known to express the α4β1 integrin; host or cells: Jurkat T-cell line
T2 sequence (P13612 34-1032): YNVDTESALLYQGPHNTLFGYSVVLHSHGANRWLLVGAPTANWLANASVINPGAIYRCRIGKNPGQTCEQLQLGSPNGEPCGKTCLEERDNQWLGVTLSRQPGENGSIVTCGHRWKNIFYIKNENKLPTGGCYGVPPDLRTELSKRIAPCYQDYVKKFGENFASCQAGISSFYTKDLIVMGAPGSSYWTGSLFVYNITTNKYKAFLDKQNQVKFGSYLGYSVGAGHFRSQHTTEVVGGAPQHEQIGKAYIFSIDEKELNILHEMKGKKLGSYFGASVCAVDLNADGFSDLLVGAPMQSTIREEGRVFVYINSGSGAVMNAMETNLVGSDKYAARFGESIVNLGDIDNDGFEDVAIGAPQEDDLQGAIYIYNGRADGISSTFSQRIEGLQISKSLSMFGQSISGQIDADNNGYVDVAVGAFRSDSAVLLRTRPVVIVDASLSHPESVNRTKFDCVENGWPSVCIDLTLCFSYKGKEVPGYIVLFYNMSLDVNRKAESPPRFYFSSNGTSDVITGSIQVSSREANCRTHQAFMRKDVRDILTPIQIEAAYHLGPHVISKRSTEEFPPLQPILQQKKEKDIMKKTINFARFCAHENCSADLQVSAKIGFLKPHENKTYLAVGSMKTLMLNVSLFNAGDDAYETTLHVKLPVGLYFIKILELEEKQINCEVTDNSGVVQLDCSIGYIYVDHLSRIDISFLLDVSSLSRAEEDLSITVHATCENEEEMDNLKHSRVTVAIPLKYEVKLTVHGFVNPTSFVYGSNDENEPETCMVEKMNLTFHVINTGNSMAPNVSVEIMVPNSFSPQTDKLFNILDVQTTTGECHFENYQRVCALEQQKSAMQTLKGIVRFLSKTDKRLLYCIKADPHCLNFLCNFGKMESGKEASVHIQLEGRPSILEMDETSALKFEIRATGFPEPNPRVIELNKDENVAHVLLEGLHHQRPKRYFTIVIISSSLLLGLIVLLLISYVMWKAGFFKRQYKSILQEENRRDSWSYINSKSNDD
T2 sequence (P05556 21-798): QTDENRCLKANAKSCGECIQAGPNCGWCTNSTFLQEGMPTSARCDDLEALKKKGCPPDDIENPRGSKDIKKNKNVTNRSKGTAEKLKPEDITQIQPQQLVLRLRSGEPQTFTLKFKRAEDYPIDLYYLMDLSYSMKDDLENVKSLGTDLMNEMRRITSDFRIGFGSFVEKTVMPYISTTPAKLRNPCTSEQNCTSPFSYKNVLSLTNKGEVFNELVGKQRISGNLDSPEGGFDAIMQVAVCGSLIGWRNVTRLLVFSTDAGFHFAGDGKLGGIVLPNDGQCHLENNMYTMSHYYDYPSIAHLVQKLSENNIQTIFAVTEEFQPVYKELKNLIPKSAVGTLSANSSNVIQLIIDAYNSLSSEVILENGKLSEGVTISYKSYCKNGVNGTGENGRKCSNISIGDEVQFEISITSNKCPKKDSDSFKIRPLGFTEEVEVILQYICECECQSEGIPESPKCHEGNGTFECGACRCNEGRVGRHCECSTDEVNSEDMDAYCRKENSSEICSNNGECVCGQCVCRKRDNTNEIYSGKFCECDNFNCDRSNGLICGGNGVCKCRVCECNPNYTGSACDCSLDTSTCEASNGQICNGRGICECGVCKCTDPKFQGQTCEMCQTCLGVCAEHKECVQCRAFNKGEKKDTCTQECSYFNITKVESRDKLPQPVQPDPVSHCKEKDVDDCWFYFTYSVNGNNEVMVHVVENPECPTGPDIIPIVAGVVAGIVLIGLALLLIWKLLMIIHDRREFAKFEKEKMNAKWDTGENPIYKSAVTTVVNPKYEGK
Briefly: Jurkat-Endothelial Cell Adhesion Assay (Jurkat EC). The data set is classed as cell-based. As to conditions: Jurkat cells on IL-1 stimulated HUVEC monolayers. In short, it runs like this: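 BCECF-loaded Jurkat cells (5×10^5) mixed with compound (generally 100, 20, 5 and 1.25 μM) and added to HUVEC monolayers prestimulated 4 hr with 0.1 ng/ml IL-1, in DMEM-HSA. After 5 min on ice and 20 min at 37° C, washed; fluorescence gives % adhesion relative to no-compound control set at 100%.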

T1 sequence (P13612 34-1032): as the sequence (P13612 34-1032) above
T1 sequence (P05556 21-798): as the sequence (P05556 21-798) above

Take `Cc1cccc(C)c1C(=O)Nc1ccc(C[C@H](NC(=O)[C@H]2CC[C@@](C)(C(=O)O)C2(C)C)C(=O)O)cc1` [Example 81]: the melting point (in general, the temperature, or range, at which the solid turns liquid) was 195 to 198 °C. Further, in data set [1], the IC50 (commonly the midpoint of a concentration-inhibition curve) lay in the range of 80 to 500 nM. Also, in data set [2], the IC50 is not above 800 nM.
In the same order, the values of `CC1(C)[C@@H](C(=O)N[C@@H](Cc2ccc(NC(=O)c3c(F)cccc3F)cc2)C(=O)O)CC[C@@]1(C)C(=O)O` [Example 83] are 150 to 152 °C, not above 80 nM and not above 800 nM.
On to `CC1(C)[C@@H](C(=O)N[C@@H](Cc2ccc(NC(=O)c3ccccc3)cc2)C(=O)O)CC[C@@]1(C)C(=O)O` [Example 85], for which the melting point was in the range of 145 to 148 °C. In addition, the IC50 in data set [1] lay within 80 to 500 nM. Also, in data set [2], the IC50 fell in the range of 5000 to 10000 nM.
In the same order, the values of `CC1(C)[C@@H](C(=O)N[C@@H](Cc2ccc(NC(=O)c3cc(Cl)ccc3Cl)cc2)C(=O)O)CC[C@@]1(C)C(=O)O` [Example 87] are 155 to 158 °C, not above 80 nM and not above 800 nM.
For `CC1(C)[C@@H](C(=O)N[C@@H](Cc2ccc(NC(=O)c3cccc(C(=O)c4ccccc4)c3)cc2)C(=O)O)CC[C@@]1(C)C(=O)O` [Example 89], in that order: 190 to 193 °C, 80 to 500 nM and 800 to 5000 nM.
Take `CC1(C)[C@@H](C(=O)N[C@@H](Cc2ccc(NC(=O)c3cccc([N+](=O)[O-])c3)cc2)C(=O)O)CC[C@@]1(C)C(=O)O` [Example 91]: the melting point is 146 to 149 °C. The compound further registered an IC50 in data set [1] not above 80 nM. Moreover, in data set [2], the IC50 fell in the range of 800 to 5000 nM.
With `COc1ccccc1C(=O)Nc1ccc(C[C@H](NC(=O)[C@H]2CC[C@@](C)(C(=O)O)C2(C)C)C(=O)O)cc1` [Example 95], the melting point is 140 to 143 °C. In data set [1], this compound gave an IC50 of 80 to 500 nM. Besides, the IC50 in data set [2] was 800 to 5000 nM.
For `CC1(C)[C@@H](C(=O)N[C@@H](Cc2ccc(NC(=O)c3cc(Br)ccc3Br)cc2)C(=O)O)CC[C@@]1(C)C(=O)O` [Example 97], in that order: 170 to 173 °C, not above 80 nM and not above 800 nM.
In the same order, the values of `CC1(C)[C@@H](C(=O)N[C@@H](Cc2ccc(NC(=O)c3cc(C(F)(F)F)ccc3C(F)(F)F)cc2)C(=O)O)CC[C@@]1(C)C(=O)O` [Example 104] are 148 to 150 °C, not above 80 nM and not above 800 nM.
As for `Cc1cccc(Cl)c1C(=O)Nc1ccc(C[C@H](NC(=O)[C@H]2CC[C@@](C)(C(=O)O)C2(C)C)C(=O)O)cc1` [Example 106], the melting point lay within 165 to 168 °C. Besides, in data set [1], the IC50 is not above 80 nM. In data set [2], the IC50 was not above 800 nM.
On to `CC1(C)[C@@H](C(=O)N[C@@H](Cc2ccc(NC(=O)c3ccccc3C(F)(F)F)cc2)C(=O)O)CC[C@@]1(C)C(=O)O` [Example 108], for which the melting point lay within 180 to 183 °C. In data set [1], this compound gave an IC50 not above 80 nM. In addition, in data set [2], the IC50 is not above 800 nM.
In the same order, the values of `CC1(C)[C@@H](C(=O)N[C@@H](Cc2ccc(NC(=O)c3ccccc3I)cc2)C(=O)O)CC[C@@]1(C)C(=O)O` [Example 110] are 162 to 165 °C, not above 80 nM and not above 800 nM.
In turn, `CC1(C)[C@@H](C(=O)N[C@@H](Cc2ccc(NC(=O)c3ccccc3Br)cc2)C(=O)O)CC[C@@]1(C)C(=O)O` [Example 112] came in with a melting point of 156 to 158 °C. In data set [1], this compound displayed an IC50 not above 80 nM. In data set [2], this compound gave an IC50 not above 800 nM.
In turn, `CC1(C)[C@@H](C(=O)N[C@@H](Cc2ccc(NC(=O)c3ccc(Cl)c(Cl)c3)cc2)C(=O)O)CC[C@@]1(C)C(=O)O` [Example 114] showed a melting point of 155 to 157 °C. Also, the IC50 in data set [1] lay within 80 to 500 nM. The compound further displayed an IC50 in data set [2] not above 800 nM.
In the same order, the values of `CC1(C)[C@@H](C(=O)N[C@@H](Cc2ccc(NC(=O)c3ccc(-c4ccccc4)cc3)cc2)C(=O)O)CC[C@@]1(C)C(=O)O` [Example 116] are 162 to 165 °C, not above 80 nM and not above 800 nM.
The compound `CC1(C)[C@@H](C(=O)N[C@@H](Cc2ccc(NC(=O)c3ccccc3Cl)cc2)C(=O)O)CC[C@@]1(C)C(=O)O` [Example 120] showed a melting point of 143 to 145 °C. For the same compound, the IC50 in data set [1] lay within 80 to 500 nM. The same compound returned an IC50 in data set [2] of 800 to 5000 nM.
In the same order, the values of `CC1(C)[C@@H](C(=O)N[C@@H](Cc2ccc(NC(=O)Cc3ccccc3)cc2)C(=O)O)CC[C@@]1(C)C(=O)O` [Example 121] are 240 to 242 °C, 500 to 1000 nM and 800 to 5000 nM.
In the same order, the values of `CC1(C)[C@@H](C(=O)N[C@@H](Cc2ccc(NC(=O)c3ccc4ccccc4c3)cc2)C(=O)O)CC[C@@]1(C)C(=O)O` [Example 124] are 141 to 143 °C, 80 to 500 nM and 800 to 5000 nM.
In the same order, the values of `CC1(C)[C@@H](C(=O)N[C@@H](Cc2ccc(NC(=O)c3ccc(Cl)cc3)cc2)C(=O)O)CC[C@@]1(C)C(=O)O` [Example 128] are 185 to 188 °C, 80 to 500 nM and 800 to 5000 nM.
`CC1(C)[C@@H](C(=O)N[C@@H](Cc2ccc(NC(=O)c3ccco3)cc2)C(=O)O)CC[C@@]1(C)C(=O)O` [Example 130] registered a melting point of 158 to 161 °C. The IC50 in data set [1] was in the range of 80 to 500 nM. Besides, the IC50 in data set [2] is 800 to 5000 nM.
As to `CC1(C)[C@@H](C(=O)N[C@@H](Cc2ccc(NC(=O)c3ccccc3F)cc2)C(=O)O)CC[C@@]1(C)C(=O)O` [Example 132], the melting point lay in the range of 117 to 120 °C. The compound also gave an IC50 in data set [1] of 80 to 500 nM. The same compound returned an IC50 in data set [2] of 800 to 5000 nM.
For `CC1(C)[C@@H](C(=O)N[C@@H](Cc2ccc(NC(=O)c3cccc4c3Cc3ccccc3-4)cc2)C(=O)O)CC[C@@]1(C)C(=O)O` [Example 136], in that order: 160 to 163 °C, 500 to 1000 nM and 5000 to 10000 nM.
Consider `CC(C)COC(=O)Nc1ccc(C[C@H](NC(=O)[C@H]2CC[C@@](C)(C(=O)O)C2(C)C)C(=O)O)cc1` [Example 141], for which the melting point fell in the range of 125 to 128 °C. This compound showed an IC50 in data set [1] of 500 to 1000 nM. This compound displayed an IC50 in data set [2] of 800 to 5000 nM.
For `Cc1ccccc1C(=O)Nc1ccc(C[C@H](NC(=O)[C@H]2CC[C@@](C)(C(=O)O)C2(C)C)C(=O)O)cc1` [Example 142], in that order: 152 to 155 °C, 80 to 500 nM and 800 to 5000 nM.
`CC1(C)[C@@H](C(=O)N[C@@H](Cc2ccc(NC(=O)c3ccccc3N)cc2)C(=O)O)CC[C@@]1(C)C(=O)O` [Example 144] displayed a melting point of 195 to 198 °C. This compound showed a 50% inhibitory concentration (IC50) in data set [1] of 80 to 500 nM. Also, the IC50 in data set [2] lay within 800 to 5000 nM.
In the same order, the values of `CC1(C)[C@@H](C(=O)N[C@@H](Cc2ccc(NC(=O)C3Cc4ccccc4CN3)cc2)C(=O)O)CC[C@@]1(C)C(=O)O` (stereo partly drawn) [Example 146] are 208 to 211 °C, 80 to 500 nM and 800 to 5000 nM.
For `Cc1ccc(S(=O)(=O)Nc2ccc(C[C@H](NC(=O)[C@H]3CC[C@@](C)(C(=O)O)C3(C)C)C(=O)O)cc2)cc1` [Example 150], in that order: 220 to 223 °C, 500 to 1000 nM and 800 to 5000 nM.
Regarding `CC1(C)[C@@H](C(=O)N[C@@H](Cc2ccc(NCc3c(Cl)cccc3Cl)cc2)C(=O)O)CC[C@@]1(C)C(=O)O` [Example 152], the melting point lay within 100 to 103 °C. In data set [1], the IC50 is not above 80 nM. In data set [2], this compound displayed an IC50 not above 800 nM.
In the case of `CC1(C)[C@@H](C(=O)N[C@@H](Cc2ccc(OCc3c(Cl)cccc3Cl)cc2)C(=O)O)CC[C@@]1(C)C(N)=O` [Example 155, (1S-cis)-N-[[3-(Aminocarbonyl)-2,2,3-trimethylcyclopentyl]carbonyl]-O-[(2,6-dichlorophenyl)methyl]-L-tyrosine], the melting point was 102 to 104 °C. In addition, in data set [1], the IC50 fell in the range of 500 to 1000 nM. The same compound registered an IC50 in data set [2] of 5000 to 10000 nM.
In the same order, the values of `CC1(C)[C@@H](C(=O)N[C@@H](Cc2ccc(NC(=O)c3cccnc3Cl)cc2)C(=O)O)CC[C@@]1(C)C(=O)O` [Example 208, (1S-cis)-N-[(3-Carboxy-2,2,3-trimethylcyclopentyl)carbonyl]-4-[[(2-chloro-3-pyridinyl)carbonyl]amino]-L-phenylalanine] are 172 to 174 °C, 80 to 500 nM and not above 800 nM.
In the same order, the values of `CC1(C)[C@@H](C(=O)N[C@@H](Cc2ccc(NC(=O)c3ccc(Cl)nc3Cl)cc2)C(=O)O)CC[C@@]1(C)C(=O)O` [Example 209, (1S-cis)-N-[(3-Carboxy-2,2,3-trimethylcyclopentyl)carbonyl]-4-[[(2,6-dichloro-3-pyridinyl)carbonyl]amino]-L-phenylalanine] are 246 to 247 °C, not above 80 nM and not above 800 nM.
The compound `COc1nc(Cl)ccc1C(=O)Nc1ccc(C[C@H](NC(=O)[C@H]2CC[C@@](C)(C(=O)O)C2(C)C)C(=O)O)cc1` [Example 210, (1S-cis)-N-[(3-Carboxy-2,2,3-trimethylcyclopentyl)carbonyl]-4-[[(2-methoxy-6-chloropyridin-3-yl)carbonyl]-amino]-L-phenylalanine] registered a melting point of 128 to 131 °C. Further, the IC50 in data set [1] is not above 80 nM. This compound displayed an IC50 in data set [2] not above 800 nM.
